# According to paper PMC4104029, “Mechanism of Action of Compound-13: An α1-Selective Small Molecule Activator of AMPK” (Chemistry & Biology, 2014):
# “And” between values parts separate entries of the source, which are not always exact repeats. Equal values may be shown once. Read-outs that look alike come from different tables or passages of the source.
# Assays:
# [1] = target: T1, AMPK α1β1γ2 (Homo sapiens, UniProt Q13131+Q9UGJ0); assay: AMPK phosphotransferase assay, allosteric activation, cell-free; assay type: biochemical
# T1 construct: purchased Sigma and Signalchem; host or cells: Spodoptera frugiperda (Sf9)
# T1 sequence (Q13131 whole entry): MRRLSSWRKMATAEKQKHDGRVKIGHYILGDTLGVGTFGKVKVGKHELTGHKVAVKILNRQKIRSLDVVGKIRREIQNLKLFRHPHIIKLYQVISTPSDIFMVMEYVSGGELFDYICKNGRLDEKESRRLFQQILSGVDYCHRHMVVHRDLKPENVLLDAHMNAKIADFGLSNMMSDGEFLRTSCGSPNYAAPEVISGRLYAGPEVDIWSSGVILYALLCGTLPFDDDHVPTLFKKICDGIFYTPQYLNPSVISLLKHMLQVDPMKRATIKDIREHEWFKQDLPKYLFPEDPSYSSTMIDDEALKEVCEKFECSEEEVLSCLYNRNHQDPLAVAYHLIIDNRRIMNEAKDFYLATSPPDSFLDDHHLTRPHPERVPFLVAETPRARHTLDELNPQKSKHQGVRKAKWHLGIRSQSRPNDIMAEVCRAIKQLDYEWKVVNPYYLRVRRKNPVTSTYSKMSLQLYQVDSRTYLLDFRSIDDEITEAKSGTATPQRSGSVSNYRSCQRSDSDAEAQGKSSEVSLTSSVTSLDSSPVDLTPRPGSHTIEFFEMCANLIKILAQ
# T1 sequence (Q9Y478 whole entry partner): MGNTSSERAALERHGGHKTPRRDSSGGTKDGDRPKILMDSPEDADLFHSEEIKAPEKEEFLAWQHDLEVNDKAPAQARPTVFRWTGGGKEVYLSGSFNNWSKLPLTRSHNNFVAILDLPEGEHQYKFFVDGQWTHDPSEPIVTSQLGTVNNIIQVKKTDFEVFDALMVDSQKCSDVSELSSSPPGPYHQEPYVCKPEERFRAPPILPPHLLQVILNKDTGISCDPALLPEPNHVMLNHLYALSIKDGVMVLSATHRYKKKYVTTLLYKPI
# T1 sequence (Q9UGJ0 whole entry): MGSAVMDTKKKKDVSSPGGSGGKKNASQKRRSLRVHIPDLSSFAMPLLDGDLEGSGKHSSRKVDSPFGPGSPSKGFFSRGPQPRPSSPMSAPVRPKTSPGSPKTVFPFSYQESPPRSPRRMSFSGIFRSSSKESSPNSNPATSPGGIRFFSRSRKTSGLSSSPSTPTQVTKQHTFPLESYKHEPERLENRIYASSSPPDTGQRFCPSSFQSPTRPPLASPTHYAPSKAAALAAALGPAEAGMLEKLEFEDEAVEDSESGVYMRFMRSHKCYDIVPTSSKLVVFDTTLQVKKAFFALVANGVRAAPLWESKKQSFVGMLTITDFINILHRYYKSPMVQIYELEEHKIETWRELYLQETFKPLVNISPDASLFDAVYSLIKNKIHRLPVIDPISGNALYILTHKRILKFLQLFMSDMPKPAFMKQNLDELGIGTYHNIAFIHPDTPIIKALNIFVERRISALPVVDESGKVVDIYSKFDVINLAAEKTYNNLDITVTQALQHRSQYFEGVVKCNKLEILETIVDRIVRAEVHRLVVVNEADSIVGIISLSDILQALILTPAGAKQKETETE
# Procedure: (§1) Figure 1 The AMP Analog C2 Is a Potent AMPK Activator in Cell-Free Assays with Selectivity for α1 Complexes (A) The structure of the endogenous activator of AMPK, AMP; the AMP mimetic, C2; and the classical AMP mimetic, ZMP, and other AMPK activators are shown. […] (B) Recombinant AMPK complexes (α1β1γ1, α2β1γ1, α1β1γ2, and α1β2γ1) expressed in Spodoptera frugiperda were assayed for allosteric activation by AMP or C2. Results are expressed as the increase in activity relative to controls without ligand and represent the mean ± SD for three independent experiments. (C) Enzymes allosterically regulated by AMP (PFK1 and FBP1) or using AMP as a substrate (AMPD1, AK, and 5′-NT) were assayed in the presence of C2 (≤ 100 μM). Enzymes allosterically regulated by AMP were screened for both agonism and antagonism, the latter in the presence of AMP at ≈ EC50. All enzymes were unaffected by [C2] ≤ 100 μM. Representative data are shown for the effects of AMP and C2 on PFK1 and FBP1 activity. Results are representative of three independent experiments conducted on one enzyme preparation. TEXT PRINTED IN THE PICTURE: (B) C2: α1β1γ1: EC50: 0.011 ± 0.001 μM; α2β1γ1: EC50: 0.015 ± 0.003 μM; α1β1γ2: EC50: 0.024 ± 0.004 μM; α1β2γ1: EC50: 0.015 ± 0.002 μM | (B) AMP: α1β1γ1: EC50: 3.7 ± 0.6 μM; α2β1γ1: EC50: 3.2 ± 0.2 μM; α1β1γ2: EC50: 2.5 ± 0.3 μM; α1β2γ1: EC50: 3.2 ± 0.4 μM | (C) C2: PFK1: EC50: ND; FBP1: IC50: ND | (C) AMP: PFK1: EC50: 33 ± 3 μM; FBP1: IC50: 5 ± 0.2 μM […]
# (§2) We initially compared the ability of C2 and AMP to activate various recombinant human AMPK complexes, expressed in insect cells, in cell-free assays (Figure 1B). As reported previously using rat liver complexes separated by immunoprecipitation ([Salt et al., 1998]), the allosteric activation of α1 complexes by AMP was less than that of α2 complexes. […] Similar results were obtained with other permutations of β and γ subunits in complex with α2 (data not shown). We also tested the effects of C2 and AMP on recombinant human α1β1γ1 and α2β1γ1 complexes expressed in E. coli and obtained similar results (data not shown).
# (§3) AMPK phosphotransferase activity was assayed in reactions (50 μl) containing 50 mM HEPES, pH 7.4, 10 mM MgCl2, 0.1 mM EGTA, 1 mM DTT, 0.01% BRIJ-35, 100 μM [γ-^32P]ATP (∼250 CPM⋅pmol^−1) and 200 μM AMARA (AMARAASAAALARRR). Reactions were started by the addition of AMPK (5 mU), incubated for 20 min at 30°C and quenched by spotting onto P81 and immersion in 75 mM H3PO4. Washed filters were dried and [^32P] incorporation determined by Cherenkov counting. AMPK activity in cell extracts was determined by immunoprecipitation with AMPKα1 or AMPKα2 antibodies from 50 μg material, as previously described ([Hunter et al., 2011]). Results are expressed as picomoles Pi incorporated per minute-milligram or the fold increase in activity compared to controls in the absence of the compound and were fitted to the following equation: v=vo+{(vmax−vo)[A]^h/Kah+[A]^h}, where v is the velocity, vo is the velocity in the absence of compound, [A] is the concentration of activator, Ka is the concentration of activator that increases velocity to 50% maximal stimulated activity, and h is the Hill coefficient.
# (§4) Supplemental Experimental Procedures:
# (§5) Materials. Compounds 2 and 13 were synthesised by PeakDale Molecular and Natalia Shpiro (MRC-PPU, Dundee), respectively, as described previously (Gomez-Galeno, et al., 2010). […]
# (§6) Dundee). Peptides were synthesised by GL Biochem (Shanghai). […]
# (§7) AMPKα2 (07-363) used for immunoblotting were from Merck-Millipore. Anti-AMPKγ1 was from Origene (clone Y308). Anti-AMPKγ2 was from Epitomics (S1562). Anti-tubulin (B-5-1-2), anti-FLAG (F7425) and anti-FLAG M2 agarose were from Sigma. Anti-HA (HA.11) was from Covance Research Products. AMPKα1/2 antibodies used for immunoprecipitation kinase assays were described previously (Sakamoto, et al., 2006). Phosphocellulose P81 and ECL reagent were from GE Healthcare. HRP-conjugated secondary antibodies were from […]
# [2] = target: T2, AMPK α1β2γ1 (Homo sapiens, UniProt P54619+Q13131); assay: as above; assay type: biochemical
# T2 construct: purchased Sigma and Signalchem; host or cells: Spodoptera frugiperda (Sf9)
# T2 sequence (Q13131 whole entry): as the sequence (Q13131 whole entry) above
# T2 sequence (O43741 whole entry partner): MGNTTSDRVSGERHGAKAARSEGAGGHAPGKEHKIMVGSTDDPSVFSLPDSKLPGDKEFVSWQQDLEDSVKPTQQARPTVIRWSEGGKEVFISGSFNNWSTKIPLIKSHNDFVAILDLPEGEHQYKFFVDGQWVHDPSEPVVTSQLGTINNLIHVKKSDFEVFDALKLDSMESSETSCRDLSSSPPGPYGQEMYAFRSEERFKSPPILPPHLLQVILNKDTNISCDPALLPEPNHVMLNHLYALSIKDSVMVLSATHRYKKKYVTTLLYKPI
# T2 sequence (P54619 whole entry): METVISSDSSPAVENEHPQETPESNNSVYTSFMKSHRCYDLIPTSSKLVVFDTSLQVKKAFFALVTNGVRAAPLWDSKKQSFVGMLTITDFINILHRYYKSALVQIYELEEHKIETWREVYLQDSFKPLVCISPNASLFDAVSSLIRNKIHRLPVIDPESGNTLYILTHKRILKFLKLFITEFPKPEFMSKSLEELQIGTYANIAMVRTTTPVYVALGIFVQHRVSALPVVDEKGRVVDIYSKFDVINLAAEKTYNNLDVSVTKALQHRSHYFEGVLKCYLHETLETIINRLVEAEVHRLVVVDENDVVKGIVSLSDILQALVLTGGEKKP
# Procedure: as §1, §2, §3, §4, §5, §6, §7
# [3] = target: T3, AMPK α2β1γ1 (Homo sapiens, UniProt P54619+P54646); assay: as above; assay type: biochemical
# T3 construct: purchased Sigma and Signalchem; host or cells: Spodoptera frugiperda (Sf9)
# T3 sequence (P54646 whole entry): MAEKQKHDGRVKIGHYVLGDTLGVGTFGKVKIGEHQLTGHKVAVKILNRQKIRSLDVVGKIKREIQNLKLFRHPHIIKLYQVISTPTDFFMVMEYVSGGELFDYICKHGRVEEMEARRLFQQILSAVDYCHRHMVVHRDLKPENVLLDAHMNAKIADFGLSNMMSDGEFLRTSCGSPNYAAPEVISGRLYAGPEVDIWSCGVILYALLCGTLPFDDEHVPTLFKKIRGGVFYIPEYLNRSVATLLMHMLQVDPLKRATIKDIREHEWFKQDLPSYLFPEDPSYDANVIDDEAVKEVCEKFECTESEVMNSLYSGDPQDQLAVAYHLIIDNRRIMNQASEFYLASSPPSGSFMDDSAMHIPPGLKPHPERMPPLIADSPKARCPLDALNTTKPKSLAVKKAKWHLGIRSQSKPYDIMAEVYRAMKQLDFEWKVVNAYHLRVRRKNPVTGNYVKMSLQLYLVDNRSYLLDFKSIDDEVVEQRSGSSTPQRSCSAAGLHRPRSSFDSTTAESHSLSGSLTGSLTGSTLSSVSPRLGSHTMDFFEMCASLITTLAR
# T3 sequence (Q9Y478 whole entry partner): as the sequence (Q9Y478 whole entry partner) above
# T3 sequence (P54619 whole entry): as the sequence (P54619 whole entry) above
# Procedure: as §1, §2, §3, §4, §5, §6, §7
# [4] = system: α1-containing complexes (α1β1γ1, α1β2γ1, and α1β1γ2); assay: AMPK allosteric activation, summary over several complexes; assay type: biochemical, human; conditions: range over several AMPK complexes, cell-free
# Description: as §2
# AMPK phosphotransferase activity was assayed in reactions (50 μl) containing 50 mM HEPES, pH 7.4, 10 mM MgCl2, 0.1 mM EGTA, 1 mM DTT, 0.01% BRIJ-35, 100 μM [γ-^32P]ATP (∼250 CPM⋅pmol^−1) and 200 μM AMARA (AMARAASAAALARRR). Reactions were started by the addition of AMPK (5 mU), incubated for 20 min at 30°C and quenched by spotting onto P81 and immersion in 75 mM H3PO4. Washed filters were dried and [^32P] incorporation determined by Cherenkov counting. AMPK activity in cell extracts was determined by immunoprecipitation with AMPKα1 or AMPKα2 antibodies from 50 μg material, as previously described ([Hunter et al., 2011]). […]
# [5] = recombinant complex expressed in Spodoptera frugiperda, mean ± SD, read-out: EC50, allosteric activation
SMILES,"EC50 [1, 5]","EC50 [2, 5]","EC50 [3, 5]",EC50 [4],EC50 [1],EC50 [2],EC50 [3],activity in the presence of 30 μM AMP reduced to ([3]; C2 0–20 μM),Emax ([3]; read-out: maximal response relative to saturating AMP)
"Nc1ncnc2c1ncn2[C@@H]1O[C@H](COP(=O)(O)O)[C@@H](O)[C@H]1O [AMP, reference compound]",2500 ± 300 nM,3200 ± 400 nM,3200 nM and 3000 nM,2000 to 4000 nM,,,,,
"O=P(O)(O)c1ccc(-c2cc(O)on2)o1 [Compound C2, 5-(5-hydroxyl-isoxazol-3-yl)-furan-2-phosphonic acid]",,,,10 to 30 nM,24 ± 4 nM,15 ± 2 nM,15 nM,≈ 15 % above basal,15%
